Literature values as cited in patent publication US8808735B2, “Fast wet-massing method for the preparation of calcium-containing compositions” (Takeda Nycomed AS, priority 2005, dated 2014).

Tested on: fracture rate
Conditions: annual injections of 150.000-300.000 IU

For vitamin D, the overall fracture rate is listed as “significant reduction”.
